Assay results taken from US7294615B1, “Compounds that associate on the intermolecular level and aggregate bodies that contain them” (priority 1999, dated 2007).
pIC50, pKd: −log10 of the molar value. Where two headings read alike, the source gives them in different places.

Tests used:
[1] = system: Influenza virus A/Duck/Alberta/60/67 H12N5; type: binding
[2] = system: influenza virus strain A/NIB/H1N1/89M; test: FBI test, inhibition of viral adhesion (Table 9); conditions: 6'SLN as reference compound (=1)
PK15 cells = conditions: read-out: Concentration at which 50% inhibition of cytotoxicity was achieved, human serum, 10% rabbit serum complement
[3] = system: Influenza virus A/NIB/44/90M H3N2; test: Fetuin binding inhibition (FBI) test, inhibition of viral cell adhesion; conditions: for Relative activity: FBI test, Neu5AcαBn as reference compound (=1), specific activity per Neu5Ac group; for pKd: inhibitor virus complex
[4] = Gel permeation chromatography of aggregates; type: physicochemical; conditions: for Aggregate, %: determined by gel permeation chromatography
Source text: (§1) The formation of aggregates in solution can be observed by light scattering experiments or by gel permeation chromatography.
The compound of the general formula (I) Neu5Ac-Gab-ACm-Ad-Gly5-NHCH2-]4C (m=1-3) associates at room temperature in aqueous and organic solvents.
Silica gel 60 (40-63 μm) (Merck) was used for column chromatography. Sephadex of types LH-20, G-10, G-25 (Pharmacia, Sweden) and TSK-4000 (HPLC) were used for gel permeation chromatography.

[5] = Light scattering, particle size of aggregates; type: physicochemical
Method: as §1
The light scattering experiments were carried out using the following apparatus: Coultronics Coulter N4-MD (He-Ne laser, λ=632.8 nm, measurement of the scattering at an angle of 62.5° to the incident light beam), Spectra-Physics 164 (argon laser, λ=528.7 nm and λ=611.5 nm, measurement of the scattering at an angle of 90° to the incident light beam).
The investigation into the light scattering of a 50 mM solution of compound (22a) in water was carried out using a Spectra-Physics 164 argon laser (plasma lines λ=528.7 and 611.5 nm), the scattering was measured at an angle of 90° to the incident light beam. The particle size thereby determined was <2.5 nm. 50 μl of 0.8M NaHCO3 solution were added to the resulting solution. The light scattering was measured, as described above, the average particle size thereby determined was 200-400 nm.
50 μl of a 0.8M HCl was added to the resulting solution, and the sample was investigated by means of light scattering, as described above. The particle size thereby determined was <2.5 nm.

CC(=O)N[C@H]1[C@H]([C@H](O)[C@H](O)CO)O[C@@](O[C@H]2[C@@H](O)[C@@H](CO)O[C@@H](O[C@H]3[C@H](O)[C@@H](O)C(O)O[C@@H]3CO)[C@@H]2O)(C(=O)O)C[C@@H]1O (some centres unmarked) [3'SL, reference compound]
Relative activity ([1]; FBI test, 3'SL as reference compound (=1), specific activity per 3'SL group): 1 | pKd ([1]; fetuin binding assay, inhibitor virus complex): 4.70

CC(=O)N[C@H]1[C@H]([C@H](O)[C@H](O)CO)O[C@](OC[C@H]2O[C@@H](O[C@H]3[C@H](O)[C@@H](NC(C)=O)C(O)O[C@@H]3CO)[C@H](O)[C@@H](O)[C@H]2O)(C(=O)O)C[C@@H]1O (some centres unmarked) [6'SLN, reference compound]
Relative activity [2]: 1

O=C(CCCCCNC(=O)CCCCCNC(=O)CCCCC(=O)NCCCO[C@@H]1O[C@H](CO)[C@H](O)[C@H](O[C@H]2O[C@H](CO)[C@H](O)[C@H](O)[C@H]2O)[C@H]1O)NCCCCCC(=O)NCC(=O)NCC(=O)NCC(=O)NCC(=O)NCC(=O)NCC(CNC(=O)CNC(=O)CNC(=O)CNC(=O)CNC(=O)CNC(=O)CCCCCNC(=O)CCCCCNC(=O)CCCCCNC(=O)CCCCC(=O)NCCCO[C@@H]1O[C@H](CO)[C@H](O)[C@H](O[C@H]2O[C@H](CO)[C@H](O)[C@H](O)[C@H]2O)[C@H]1O)(CNC(=O)CNC(=O)CNC(=O)CNC(=O)CNC(=O)CNC(=O)CCCCCNC(=O)CCCCCNC(=O)CCCCCNC(=O)CCCCC(=O)NCCCO[C@@H]1O[C@H](CO)[C@H](O)[C@H](O[C@H]2O[C@H](CO)[C@H](O)[C@H](O)[C@H]2O)[C@H]1O)CNC(=O)CNC(=O)CNC(=O)CNC(=O)CNC(=O)CNC(=O)CCCCCNC(=O)CCCCCNC(=O)CCCCCNC(=O)CCCCC(=O)NCCCO[C@@H]1O[C@H](CO)[C@H](O)[C@H](O[C@H]2O[C@H](CO)[C@H](O)[C@H](O)[C@H]2O)[C@H]1O [Compound 49, {Galα1-3Galβ1-O(CH2)3NH—CO(CH2)4CO—(NH(CH2)5CO)3—(NHCH2CO)5—NHCH2—]4C}x]
pIC50 (PK15 cells): 6.30

OC[C@H]1O[C@H](O[C@H]2[C@@H](O)[C@@H](CO)OC(O)[C@@H]2O)[C@H](O)[C@@H](O)[C@H]1O (some centres unmarked) [Galα1-3Gal, reference compound]
pIC50 (PK15 cells): 3.70

CC(=O)N[C@H]1[C@H]([C@H](O)[C@H](O)CO)O[C@@](OCc2ccccc2)(C(=O)O)C[C@@H]1O [Neu5Acα-OBn, reference compound]
Relative activity [3]: 1 | pKd ([3]; fetuin binding assay): 4.00

CC(=O)N[C@@H]1[C@@H](O)[C@H](O[C@@H]2O[C@H](CO[C@]3(C(=O)O)C[C@H](O)[C@@H](NC(C)=O)[C@H]([C@H](O)[C@H](O)CO)O3)[C@H](O)[C@H](O)[C@H]2O)[C@@H](CO)O[C@H]1NC(=O)CNC(=O)CCCCC(=O)NCC(=O)NCC(=O)NCC(=O)NCC(CNC(=O)CNC(=O)CNC(=O)CNC(=O)CCCCC(=O)NCC(=O)N[C@@H]1O[C@H](CO)[C@@H](O[C@@H]2O[C@H](CO[C@]3(C(=O)O)C[C@H](O)[C@@H](NC(C)=O)[C@H]([C@H](O)[C@H](O)CO)O3)[C@H](O)[C@H](O)[C@H]2O)[C@H](O)[C@H]1NC(C)=O)(CNC(=O)CNC(=O)CNC(=O)CNC(=O)CCCCC(=O)NCC(=O)N[C@@H]1O[C@H](CO)[C@@H](O[C@@H]2O[C@H](CO[C@]3(C(=O)O)C[C@H](O)[C@@H](NC(C)=O)[C@H]([C@H](O)[C@H](O)CO)O3)[C@H](O)[C@H](O)[C@H]2O)[C@H](O)[C@H]1NC(C)=O)CNC(=O)CNC(=O)CNC(=O)CNC(=O)CCCCC(=O)NCC(=O)N[C@@H]1O[C@H](CO)[C@@H](O[C@@H]2O[C@H](CO[C@]3(C(=O)O)C[C@H](O)[C@@H](NC(C)=O)[C@H]([C@H](O)[C@H](O)CO)O3)[C@H](O)[C@H](O)[C@H]2O)[C@H](O)[C@H]1NC(C)=O [{Neu5Acα2-6Galβ1-4GlcNAcβ1-NHCOCH2NH—CO(CH2)4CO—(NHCH2CO)3—NHCH2—}4C, reference compound]
Gel permeation HPLC peaks ([4]; TSK-4000 column, 0.2M NaCl): only one peak is observed, which corresponds to the molecular weight of the monomer

[6′-SLN-Ap-Ad-AC2-Gly5-NHCH2]4C [Compound 54]
Relative activity [2]: 1000

[6′SLN-Ap-Ad-Gly7-NHCH2]4C [Compound 53]
Relative activity [2]: 100

[HCl.H-Gly7-NHCH2-]4C [Compound 22a]
Particle size ([5]; 50 mM solution in water): < 2.5 nm | Association state ([5]; after addition of 0.8M NaHCO3 solution): self-association of the compound is achieved | Average particle size ([5]; after addition of 50 μl 0.8M NaHCO3 solution): 200-400 nm | Particle size ([5]; after subsequent addition of 50 μl 0.8M HCl): < 2.5 nm | Association state ([5]; water at 20° C.): non-associated form

[Neu5Ac-Gab-AC2-Ad-Gly5-NHCH2-]4C [Compound 46]
Relative activity [3]: 330 | pKd ([3]; fetuin binding assay): 6.52 | Aggregate, % [4]: 92%

[Neu5Ac-Gab-AC3-Ad-Gly5-NHCH2-]4C [Compound 47]
Relative activity [3]: 1000 | pKd ([3]; fetuin binding assay): 7.00 | Aggregate, % [4]: 96%

[Neu5Ac-Gab-AC-Ad-Gly5-NHCH2-]4C [Compound 45]
Relative activity [3]: 15 | pKd ([3]; fetuin binding assay): 5.15 | Aggregate, % [4]: 12%

[Neu5Ac-Gab-Ad-AC2-Gly5-NHCH2-]4C [Compound 43]
Relative activity [3]: 1000 | pKd ([3]; fetuin binding assay): 7.00 | Aggregate, % [4]: 6%

[Neu5Acα-OCH2(p-C6H4)NHCOCH2NH—CO(CH2)4CO—(NH(CH2)5CO)3—(NHCH2CO)5—NHCH2—]4C [Compound 44]
Relative activity [3]: 2500 | Increase in specific activity in comparison with free ligand Neu5AcαBn ([3]; fetuin binding assay): more than three orders of magnitude | pKd ([3]; fetuin binding assay): 7.40 | Aggregate, % [4]: 54%

{[Neu5Acα2-3Galβ1-4Glcβ1-NHCOCH2NH—CO(CH2)4CO—(NHCH2CO)5—NHCH2—]4C}x [Compound 50]
pKd [1]: 6.00 | Relative activity [1]: 20

{[Neu5Acα2-3Galβ1-4Glcβ1-NHCOCH2NH—CO(CH2)4CO—(NHCH2CO)7—NHCH2—]4C}x [Compound 51]
pKd [1]: 7.00 | Relative activity [1]: 200

{[Neu5Acα-OCH2(p-C6H4)NHCOCH2NH—CO(CH2)4CO—(NHCH2CO)7—NHCH2—]4C} [Compound 48]
Relative activity [2]: <0.2 | Particle size of aggregates ([5]; water, 60° C.): up to 8000 nm | pKd ([3]; fetuin binding assay): 7.00
